Results as given in patent US12264163B2, “Compounds and methods for treating fibrotic pathologies” (Mayo Foundation for Medical Education and Research, priority 2019, dated 2025).

Legend:
[1] = tested on: CTGF, COL1A1, ACTA2, FN1; assay: Profibrotic / matrix remodeling gene expression by qPCR in fibroblasts; format: cell-based, human
Procedure: Genes which encode Connective tissue growth factor (CTGF), Collagen I (COL1A1), αSMA (ACTA2), and Fibronectin (FN1) are reduced by 24 hour treatment with DHX (10 μM), +/−SCH 39166 (3 μM). N=3 (****p<0.0001, ***p<0.001, *p<0.05 vs. 0.1% DMSO vehicle control)
IPF patient-derived fibroblasts cultured in media containing 0.1% FBS were stimulated for 24 hours with 2 ng/mL TGFβ and 10 μM DHX prior to RNA isolation. Genes which encode for ECM crosslinking: transglutaminase 2 (TGM2), lysyl oxidase and lysyl oxidase-like enzymes (LOX and LOXL1-4), ECM degradation: uPA (PLAU), tPa (PLAT), cathepsin K (CTSK), and matrix metalloprotease-14 (MMP14) and ECM protease inhibitors: metalloprotease inhibitor 3 (TIMP3), and plasminogen activator inhibitor 1 (SERPINE1) were measured. N=3. (****p<0.0001, ***p<0.001, **p<0.01, *p<0.05 vs. 0.1% DMSO vehicle control non-TGFβ treated), (++++p<0.0001, ++p<0.01, +p<0.05 vs. 0.10% DMSO vehicle control TGFβ treated).
For all other in vitro experiments, cells were treated as indicated prior to RNA isolation using RNeasy Plus Mini Kit (Qiagen) according to manufacturer's instructions. Isolated RNA (250 ng) was then used to synthesize cDNA using SuperScript VILO (Invitrogen). Quantitative PCR was performed using FastStart Essential DNA Green Master (Roche) and analyzed using a LightCycler 96 (Roche). Data are expressed as a fold change by ΔΔCt relative to GAPDH. For in vivo experiments, tissue was immediately frozen, and stored at −80° C. RNA isolation, cDNA synthesis, and qPCR analysis were performed as above.

[2] = tested on: NIH-3T3 cells; assay: Matrix remodeling measured by atomic force microscopy; format: cell-based, mouse; settings: TGFβ + ascorbic acid 72 hours, then 10 μM DHX 72 hours
Procedure: NIH-3T3 cells plated onto gelatin-coated tissue culture plates stimulated to deposit matrix with 2 ng/mL TGFβ and 20 μM ascorbic acid for 72 hours prior to AFM microindentation analysis to measure stiffness (elastic modulus). The same dishes were then treated +/−10 μM DHX in the same media for another 72 hours and AFM analysis. The matrices were decellularized and passage 3 NHLFs were plated onto the matrices; after 24 hours RNA was collected and expression of profibrotic genes was analyzed. AFM analysis N=2. 75 indentation measurements were made for each plate. The box and whisker plots show min to max, quartile, and mean from one representative experiment (****p<0.0001 vs. 0.1% DMSO vehicle control) (++p<0.01, +p<0.05 vs. the same culture plate after the first 72 hour incubation). […]
Matrix Remodeling Measured by Atomic Force Microscopy: NIH-3T3 cells were plated to confluence onto gelatin coated (Cell Biologics) AFM compatible tissue culture dishes (Willco) in DMEM containing 10% FBS. […] Microindentations were performed using a 2.5 μm radius sphere-tipped probe (Novascan, IA, USA) with a spring constant determined at about 100 pN/nm by thermal fluctuation method. For each dish, 3 different areas were analyzed. […] The Young's modulus E was determined by the fitting of force curve by Hertz model using NanoScope Analysis software (Bruker) and considering Poisson's ratio of 0.5. […]

Q: Which “expression of matrix crosslinking, protease inhibitor and matrix degradation genes” value ([1]; IPF patient derived fibroblasts, 2 ng/mL TGFβ + 10 μM DHX, 24 hours) does the source give for `Oc1cc2c(cc1O)[C@H]1c3ccccc3CN[C@@H]1CC2` (racemic) [Dihydrexidine] here?
A: Its value is “reversed the effects of TGFβ”.

Q: What about the “expression of profibrotic genes CTGF, COL1A1, ACTA2, FN1” value ([1]; IPF patient-derived lung fibroblasts, 10 μM, 24 hour) of the same compound?
A: Its value is “reduced”.

Q: What about the “profibrotic gene expression and extracellular matrix accumulation with constitutively active TAZ” value ([1]; NIH-3T3 cells expressing doxycycline-inducible TAZ4SA) of the same compound?
A: The value was “no effect on profibrotic gene expression or extracellular matrix accumulation”.

Q: What about the “profibrotic gene expression in human dermal fibroblasts” value ([1]; human dermal fibroblasts, 24 hours +/− 2 ng/mL TGFβ) of the same compound?
A: The value was “blocks profibrotic gene expression”.

Q: What about the “stiffness of cells and cell-derived matrix (AFM)” value [2] of the same compound?
A: Its value is “significantly reduced the observed stiffness”.
